Test results: patent publication US12533350B2, “Use of melanocortin-1 receptor agonist” (TANABE PHARMA CORPORATION, priority 2022, dated 2026)

Assays:
[1] = test system: pre-established BLM-induced skin fibrosis; conditions: imatinib at 150 mg/kg orally once daily day 22-42, positive control
[2] = test system: dermal fibroblasts from healthy donors; experiment: TGF-β-induced human fibroblast activation, healthy donors; assay type: cell-based; conditions: concentration of 1000 nmol/L; TGF-β 10 ng/mL, 24 hours
Source text: (§1) Full-thickness skin biopsies were obtained from clinically involved skin of patients affected by dcSSc, who were recruited from the Systemic sclerosis clinic within the Leeds Institute of Rheumatic and Musculoskeletal Medicine (UK). Control skin samples were from healthy donors. All patients with dcSSc and healthy donors provided written informed consent through the stratification for risk of progression in systemic sclerosis (STRIKE SSC), which had been approved by the North-East Research Ethic committee. Patients with SSc fulfilled the 2013 ACR/EULAR classification criteria for SSc and were classified as having dcSSc according to the LeRoy and Medsger criteria.
Dermal fibroblasts were isolated from the skin biopsy samples of healthy donors and SSc patients. The skin biopsy samples were minced with a scalpel, placed in plastic culture dishes and covered with Dulbecco's Modified Eagle Medium (DMEM) with 4.5 g/L glucose (Thermo Fisher Scientific) supplemented with 20% fetal calf serum (FCS, Thermo Fisher Scientific), 1% penicillin and streptomycin (Merck), and 1 μg/ml of amphotericin (Thermo Fisher Scientific) and cultured at 37° C. in a humidified atmosphere of 5% CO2. Additional growth medium was added after 3 days with no amphotericin. After 7 days, culture medium was replaced with medium containing 10% FCS and subsequently replenished every 2 to 3 days. When a visible outgrowth of cells was obtained, the fibroblasts were passaged. Briefly, cells were incubated with PBS containing 0.1% EDTA for 5 min, and then detached with trypsin-EDTA solution (Merck), and cultured until 70-80% confluent in DMEM (1 g/L glucose) supplemented with 10% FCS and 1% penicillin and streptomycin. After a subsequent passage, primary cells were retrovirally immortalized using human telomerase reverse transcriptase. […]
(§2) Total RNA was extracted using the Zymo quick RNA mini prep kit according to manufacturer's instructions (Zymo Research Corporation). […] Quantitative RT-PCR was performed in triplicates using SYBR Green RT-PCR Mastermix Kit (Thermo Fisher Scientific) and the ABI PRISM 7500 Fast Real Time PCR System (Applied Biosystems). […]
FIGS. 5(A)-5(B) show the effect of Compound A on human fibroblast activation. Dermal fibroblasts from a healthy individual or an SSc patient were grown to confluence, and placed under starvation for 24 hours in a medium supplemented with 1% fetal bovine serum (A: mRNA expression of ACTA2 and COL1A1 in dermal fibroblasts of healthy individuals was measured by real-time PCR, and normalized for the GAPDH expression level. B: mRNA expression of ACTA2 and COL1A1 in dermal fibroblasts of SSc patients was measured for by real-time PCR, and normalized for the GAPDH expression level). Each bar represents the mean±SEM of the measured values from three wells. […]

[3] = test system: bleomycin (BLM)-induced skin fibrosis model; conditions: reported in the literature; cited from earlier work
[4] = test system: dermal fibroblasts from SSc patients; experiment: TGF-β-induced human fibroblast activation, SSc patients; assay type: cell-based; conditions: concentration of 1000 nmol/L; TGF-β 10 ng/mL, 24 hours
Source text: as §1
Dermal fibroblasts were isolated from the skin biopsy samples of healthy donors and SSc patients. […]
as §2
FIGS. 5(A)-5(B) show the effect of Compound A on human fibroblast activation. […] Each bar represents the mean±SEM of the measured values from three wells. […]

Compound	BLM-induced increase of skin thickness [1]	BLM-induced increase of αSMA-positive myofibroblasts in the dermis [1]	BLM-induced loss of dermal white adipose tissue [1]	TGF-β-induced increase in αSMA mRNA expression [2]	skin fibrosis [3]	TGF-β-induced increase in αSMA mRNA expression [4]
Cc1ccc(NC(=O)c2ccc(CN3CCN(C)CC3)cc2)cc1Nc1nccc(-c2cccnc2)n1 [imatinib, reference compound]	improved	improved	improved			
α-MSH [reference compound]				suppressed	suppress	suppressed
